Experimental data taken from paper PMC11870037 (Molecules, 2024).
Like-named read-outs stand apart in the source and are kept apart here.

How the values were obtained:
SERT = molecular target: T1, SERT (Rattus norvegicus, UniProt P31652); test: biochemical; format: binding; conditions: for potency ratio among SERT, NET, and H3: ratio of binding Ki values for SERT
T1 construct: [3H]-paroxetine, rat cerebral cortex; from tissue; host or cells: rat cerebral cortex (membranes / crude synaptosomes)

adrenergic α1 receptor = test: Adrenergic α1 receptor binding assay ([3H]prazosin); conditions: rat cerebral cortex, means ± SEM of three experiments, read-out: Receptor Affinity Ki ± SEM α1
NET [1] = molecular target: T2, NET (Rattus norvegicus, UniProt Q63380); test: biochemical; conditions: Receptor Affinity Ki ± SEM NET, rat hippocampal membrane, [3H]nisoxetine; means ± SEM of three experiments
T2 sequence (Q63380 1-617): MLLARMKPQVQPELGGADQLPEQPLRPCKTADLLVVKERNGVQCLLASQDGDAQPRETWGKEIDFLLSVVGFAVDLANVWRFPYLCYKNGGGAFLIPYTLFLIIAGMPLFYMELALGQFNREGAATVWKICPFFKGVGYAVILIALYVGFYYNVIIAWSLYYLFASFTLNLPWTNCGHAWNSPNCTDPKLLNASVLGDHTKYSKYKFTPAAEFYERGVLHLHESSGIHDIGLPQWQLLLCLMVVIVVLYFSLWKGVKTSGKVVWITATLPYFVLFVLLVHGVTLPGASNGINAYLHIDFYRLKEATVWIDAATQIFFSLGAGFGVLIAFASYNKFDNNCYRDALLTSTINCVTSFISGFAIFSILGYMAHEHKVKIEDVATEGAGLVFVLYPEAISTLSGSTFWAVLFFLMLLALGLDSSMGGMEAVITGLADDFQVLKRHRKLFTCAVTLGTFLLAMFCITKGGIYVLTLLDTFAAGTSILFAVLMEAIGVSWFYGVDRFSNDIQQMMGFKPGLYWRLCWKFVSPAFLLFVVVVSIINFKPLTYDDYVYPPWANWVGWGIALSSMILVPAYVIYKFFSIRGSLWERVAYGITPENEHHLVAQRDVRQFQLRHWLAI

hERG potassium channel = molecular target: T3, hERG potassium channel (Homo sapiens, UniProt Q12809); test: hERG whole-cell patch clamp in HEK 293 cells; format: cell-based
T3 construct: expressed in transfected cells; host or cells: HEK 293
T3 sequence (Q12809 whole entry): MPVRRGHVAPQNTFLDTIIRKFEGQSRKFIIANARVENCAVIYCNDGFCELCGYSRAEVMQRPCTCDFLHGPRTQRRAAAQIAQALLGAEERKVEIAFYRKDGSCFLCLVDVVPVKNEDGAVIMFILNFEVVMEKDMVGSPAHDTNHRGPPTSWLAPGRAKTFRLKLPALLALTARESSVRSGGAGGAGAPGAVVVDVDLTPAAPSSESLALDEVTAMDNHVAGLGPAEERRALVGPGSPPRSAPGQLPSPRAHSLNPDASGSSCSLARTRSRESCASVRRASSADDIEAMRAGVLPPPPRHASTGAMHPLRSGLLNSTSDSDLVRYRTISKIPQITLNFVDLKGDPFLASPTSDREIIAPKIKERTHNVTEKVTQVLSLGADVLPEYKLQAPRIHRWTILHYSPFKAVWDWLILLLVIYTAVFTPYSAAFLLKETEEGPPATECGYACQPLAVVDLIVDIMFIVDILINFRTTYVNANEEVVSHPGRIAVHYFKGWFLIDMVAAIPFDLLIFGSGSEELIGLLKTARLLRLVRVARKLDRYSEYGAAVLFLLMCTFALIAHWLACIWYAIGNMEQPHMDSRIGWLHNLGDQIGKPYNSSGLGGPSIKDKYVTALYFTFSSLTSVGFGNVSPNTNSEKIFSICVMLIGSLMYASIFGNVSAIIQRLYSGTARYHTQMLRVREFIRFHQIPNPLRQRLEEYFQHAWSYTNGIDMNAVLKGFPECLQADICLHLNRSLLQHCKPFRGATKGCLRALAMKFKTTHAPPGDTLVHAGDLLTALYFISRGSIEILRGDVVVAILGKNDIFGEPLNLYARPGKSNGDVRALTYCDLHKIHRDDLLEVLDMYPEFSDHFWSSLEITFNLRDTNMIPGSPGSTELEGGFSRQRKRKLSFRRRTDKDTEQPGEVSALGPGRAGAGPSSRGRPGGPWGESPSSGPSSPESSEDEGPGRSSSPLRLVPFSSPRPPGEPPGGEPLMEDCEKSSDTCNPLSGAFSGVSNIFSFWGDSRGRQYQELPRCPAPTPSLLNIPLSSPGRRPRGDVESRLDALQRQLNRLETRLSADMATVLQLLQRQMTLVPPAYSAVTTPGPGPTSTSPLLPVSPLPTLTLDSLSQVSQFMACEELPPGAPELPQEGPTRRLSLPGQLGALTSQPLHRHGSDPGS

female rats = conditions: females; cited from earlier work
mice [2] = test: Tail suspension test (TST); format: in vivo, mouse; conditions: oral, immobility duration
mice [3] = conditions: oral, immobility duration
NET [4] = molecular target: T2, NET; test: Monoamine uptake transporter assay, [3H]NE uptake by NET; format: biochemical; conditions: 10 μM, n = 3
recombinant hH3R = recombinant hH3R (Homo sapiens, UniProt Q9Y5N1); test: H3 receptor intrinsic activity assay ([35S]GTPγS binding); format: biochemical; conditions: 10 μM, n = 3
recombinant hH3R, sequence (Q9Y5N1 whole entry): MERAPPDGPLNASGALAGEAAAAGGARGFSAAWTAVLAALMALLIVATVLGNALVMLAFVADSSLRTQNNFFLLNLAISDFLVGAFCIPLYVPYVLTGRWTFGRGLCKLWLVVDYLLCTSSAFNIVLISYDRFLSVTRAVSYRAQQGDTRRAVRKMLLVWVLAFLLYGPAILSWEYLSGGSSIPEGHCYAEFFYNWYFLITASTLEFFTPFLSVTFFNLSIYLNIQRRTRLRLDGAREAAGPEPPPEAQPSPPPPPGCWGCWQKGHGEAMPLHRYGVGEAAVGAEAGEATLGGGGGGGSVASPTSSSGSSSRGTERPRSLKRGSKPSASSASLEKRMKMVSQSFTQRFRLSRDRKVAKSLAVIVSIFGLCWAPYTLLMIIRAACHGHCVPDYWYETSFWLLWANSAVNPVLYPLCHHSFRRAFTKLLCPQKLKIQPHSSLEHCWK

[5] = rat cerebral cortex, [3H]-paroxetine, means ± SEM of three experiments, read-out: Receptor Affinity Ki ± SEM SERT

T1 sequence (P31652 whole entry): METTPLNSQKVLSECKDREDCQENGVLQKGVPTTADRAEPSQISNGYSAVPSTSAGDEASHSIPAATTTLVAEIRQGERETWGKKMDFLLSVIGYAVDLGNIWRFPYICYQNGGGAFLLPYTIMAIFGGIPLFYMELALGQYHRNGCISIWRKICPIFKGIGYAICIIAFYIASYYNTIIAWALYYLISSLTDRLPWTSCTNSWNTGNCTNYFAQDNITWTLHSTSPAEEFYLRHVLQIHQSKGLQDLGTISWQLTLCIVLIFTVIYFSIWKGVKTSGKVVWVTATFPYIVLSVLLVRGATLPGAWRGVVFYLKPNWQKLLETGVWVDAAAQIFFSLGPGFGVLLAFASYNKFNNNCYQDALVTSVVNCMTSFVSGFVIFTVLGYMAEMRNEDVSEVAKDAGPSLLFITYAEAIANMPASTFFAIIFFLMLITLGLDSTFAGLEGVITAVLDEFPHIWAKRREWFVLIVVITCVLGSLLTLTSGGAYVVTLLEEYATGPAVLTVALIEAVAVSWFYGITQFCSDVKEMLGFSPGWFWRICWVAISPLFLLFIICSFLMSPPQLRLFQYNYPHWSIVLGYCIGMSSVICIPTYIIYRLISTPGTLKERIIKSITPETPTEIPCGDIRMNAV

Row | Compound | Ki (SERT; [5]) [nM] | Ki (NET [1]) [nM] | melting point [°C] | further results
1 | CN(C)CCC(Oc1cccc2c1OCO2)c1ccc(OCCCN2CCCC2)cc1.O=C(O)C(=O)O (centres unmarked) [Compound 11a, 3-(benzo[d][1,3]dioxol-4-yloxy)-N,N-dimethyl-3-(4-(3-(pyrrolidin-1-yl)propoxy)phenyl)propan-1-amine oxalate] | 10.3 ± 0.9 | 19.2 ± 2.3 | 138 to 140 | potency ratio among SERT, NET, and H3 (SERT): < 10 fold; Ki (adrenergic α1 receptor): 428 ± 35.3 nM; IC50 (hERG potassium channel): 819 ± 90.4 nM
2 | CN(C)CCC(Oc1cccc2c1OCO2)c1ccc(OCCCN2CCOCC2)cc1.O=C(O)C(=O)O (centres unmarked) [Compound 11c, 3-(benzo[d][1,3]dioxol-4-yloxy)-N,N-dimethyl-3-(4-(3-morpholinopropoxy)phenyl)propan-1-amine oxalate] | 43.2 ± 3.8 | 32.6 ± 2.7 | 169 to 170 | 
3 | CN(C)CCC(Oc1cccc2c1OCO2)c1ccc(OCCCN2CCN(C)CC2)cc1.O=C(O)C(=O)O (centres unmarked) [Compound 11d, 3-(benzo[d][1,3]dioxol-4-yloxy)-N,N-dimethyl-3-(4-(3-(4-methylpiperazin-1-yl)propoxy)phenyl)propan-1-amine oxalate] | 52.3 ± 2.8 | 86.8 ± 9.1 | 155 to 156 | 
4 | CCN1CCN(CCCOc2ccc(C(CCN(C)C)Oc3cccc4c3OCO4)cc2)CC1.O=C(O)C(=O)O (centres unmarked) [Compound 11e, 3-(benzo[d][1,3]dioxol-4-yloxy)-3-(4-(3-(4-ethylpiperazin-1-yl)propoxy)phenyl)-N,N-dimethylpropan-1-amine oxalate] | 39.6 ± 3.3 | 66.9 ± 5.1 | 187 to 189 | 
5 | CC(C)N1CCN(CCCOc2ccc(C(CCN(C)C)Oc3cccc4c3OCO4)cc2)CC1.O=C(O)C(=O)O (centres unmarked) [Compound 11f, 3-(benzo[d][1,3]dioxol-4-yloxy)-3-(4-(3-(4-isopropylpiperazin-1-yl)propoxy)phenyl)-N,N-dimethylpropan-1-amine oxalate] | 35.7 ± 3.1 | 57.9 ± 6.4 | 160 to 162 | 
6 | CN(C)CCC(Oc1cccc2c1OCO2)c1ccc(OCCCN2CC3CCCC3C2)cc1.O=C(O)C(=O)O (centres unmarked) [Compound 11g, 3-(benzo[d][1,3]dioxol-4-yloxy)-3-(4-(3-(hexahydrocyclopenta[c]pyrrol-2(1H)-yl)propoxy)phenyl)-N,N-dimethylpropan-1-amine oxalate] | 31.3 ± 4 | 48.2 ± 4.2 | 110 to 112 | 
7 | CN(C)CCC(Oc1cccc2c1OCO2)c1cccc(OCCCN2CCCC2)c1.O=C(O)C(=O)O (centres unmarked) [Compound 11h, 3-(benzo[d][1,3]dioxol-4-yloxy)-N,N-dimethyl-3-(3-(3-(pyrrolidin-1-yl)propoxy)phenyl)propan-1-amine oxalate] | 192 ± 18.8 | 144 ± 13.5 | 104 to 106 | 
8 | CN(C)CCC(Oc1cccc2c1OCO2)c1cccc(OCCCN2CCCCC2)c1.O=C(O)C(=O)O (centres unmarked) [Compound 11i, 3-(benzo[d][1,3]dioxol-4-yloxy)-N,N-dimethyl-3-(3-(3-(piperidin-1-yl)propoxy)phenyl)propan-1-amine oxalate] | 236 ± 26.1 | 105 ± 9.8 | 81 to 83 | 
9 | CN(C)CCC(Oc1cccc2c1OCO2)c1cccc(OCCCN2CCOCC2)c1.O=C(O)C(=O)O (centres unmarked) [Compound 11j, 3-(benzo[d][1,3]dioxol-4-yloxy)-N,N-dimethyl-3-(3-(3-morpholinopropoxy)phenyl)propan-1-amine oxalate] | 465 ± 39.8 | 153 ± 12.7 | 95 to 98 | 
10 | CC(C)N1CCN(CCCOc2cccc(C(CCN(C)C)Oc3cccc4c3OCO4)c2)CC1.O=C(O)C(=O)O (centres unmarked) [Compound 11k, 3-(benzo[d][1,3]dioxol-4-yloxy)-3-(3-(3-(4-isopropylpiperazin-1-yl)propoxy)phenyl)-N,N-dimethylpropan-1-amine oxalate] | 163 ± 17.6 | 111 ± 10.3 | 185 to 186 | 
11 | CN(C)CCCOc1ccc(C(CCN(C)C)Oc2cccc3c2OCO3)cc1.O=C(O)C(=O)O (centres unmarked) [Compound 11l, 3-(benzo[d][1,3]dioxol-4-yloxy)-3-(4-(3-(dimethylamino)propoxy)phenyl)-N,N-dimethylpropan-1-amine oxalate] | 17.1 ± 1.6 | 115 ± 12.3 | 121 to 122 | 
12 | CCN(CC)CCCOc1ccc(C(CCN(C)C)Oc2cccc3c2OCO3)cc1.O=C(O)C(=O)O (centres unmarked) [Compound 11m, 3-(benzo[d][1,3]dioxol-4-yloxy)-3-(4-(3-(diethylamino)propoxy)phenyl)-N,N-dimethylpropan-1-amine oxalate] | 28.4 ± 11.3 | 85.2 ± 9.1 | 98 to 100 | 
13 | CN(C)CCC(Oc1cccc2c1OCO2)c1ccc(OCCN2CCCCC2)cc1.O=C(O)C(=O)O (centres unmarked) [Compound 11n, 3-(benzo[d][1,3]dioxol-4-yloxy)-N,N-dimethyl-3-(4-(2-(piperidin-1-yl)ethoxy)phenyl)propan-1-amine oxalate] | 26.1 ± 2.3 | 37.3 ± 4.2 | 116 to 118 | 
14 | CN(C)CCC(Oc1cccc2c1OCO2)c1ccc(OCCCCN2CCCCC2)cc1.O=C(O)C(=O)O (centres unmarked) [Compound 11o, 3-(benzo[d][1,3]dioxol-4-yloxy)-N,N-dimethyl-3-(4-(4-(piperidin-1-yl)butoxy)phenyl)propan-1-amine oxalate] | 49.2 ± 4.8 | 64.6 ± 5.5 | 169 to 171 | 
15 | CC1CCCCN1CCCOc1ccc(C(CCN(C)C)Oc2cccc3c2OCO3)cc1.O=C(O)C(=O)O (centres unmarked) [Compound 11p, 3-(benzo[d][1,3]dioxol-4-yloxy)-N,N-dimethyl-3-(4-(3-(2-methylpiperidin-1-yl)propoxy)phenyl)propan-1-amine oxalate] | 20.6 ± 1.9 | 35.4 ± 3.2 | 129 to 131 | 
16 | CC1CCCN(CCCOc2ccc(C(CCN(C)C)Oc3cccc4c3OCO4)cc2)C1.O=C(O)C(=O)O (centres unmarked) [Compound 11q, 3-(benzo[d][1,3]dioxol-4-yloxy)-N,N-dimethyl-3-(4-(3-(3-methylpiperidin-1-yl)propoxy)phenyl)propan-1-amine oxalate] | 12.1 ± 1.6 | 20.7 ± 2.1 | 130 to 132 | potency ratio among SERT, NET, and H3 (SERT): < 10 fold; Ki (adrenergic α1 receptor): 307 ± 28.1 nM; IC50 (hERG potassium channel): 780 ± 68.5 nM
17 | CC1CCN(CCCOc2ccc(C(CCN(C)C)Oc3cccc4c3OCO4)cc2)CC1.O=C(O)C(=O)O (centres unmarked) [Compound 11r, 3-(benzo[d][1,3]dioxol-4-yloxy)-N,N-dimethyl-3-(4-(3-(4-methylpiperidin-1-yl)propoxy)phenyl)propan-1-amine oxalate] | 27.1 ± 1.6 | 38.3 ± 3.5 | 126 to 128 | 
18 | CC1CC(C)CN(CCCOc2ccc(C(CCN(C)C)Oc3cccc4c3OCO4)cc2)C1.O=C(O)C(=O)O (centres unmarked) [Compound 11s, 3-(benzo[d][1,3]dioxol-4-yloxy)-3-(4-(3-(3,5-dimethylpiperidin-1-yl)propoxy)phenyl)-N,N-dimethylpropan-1-amine oxalate] | 30.3 ± 2.6 | 25.1 ± 2.8 | 140 to 142 | 
19 | CN(C)CCC(Oc1cccc2c1OCO2)c1ccc(OCCCN2CCC(F)CC2)cc1.O=C(O)C(=O)O (centres unmarked) [Compound 11t, 3-(benzo[d][1,3]dioxol-4-yloxy)-3-(4-(3-(4-fluoropiperidin-1-yl)propoxy)phenyl)-N,N-dimethylpropan-1-amine oxalate] | 34.2 ± 2.8 | 42.5 ± 4.6 | 134 to 136 | 
20 | CN(C)CCC(Oc1cccc2c1OCO2)c1ccc(OCCCN2CCC(Cl)CC2)cc1.O=C(O)C(=O)O (centres unmarked) [Compound 11u, 3-(benzo[d][1,3]dioxol-4-yloxy)-3-(4-(3-(4-chloropiperidin-1-yl)propoxy)phenyl)-N,N-dimethylpropan-1-amine oxalate] | 39.5 ± 4 | 50.2 ± 4.9 | 145 to 146 | 
21 | CN(C)CCC(Oc1cccc2c1OCO2)c1ccc(OCCCN2CCC(C#N)CC2)cc1.O=C(O)C(=O)O (centres unmarked) [Compound 11v, 1-(3-(4-(1-(benzo[d][1,3]dioxol-4-yloxy)-3-(dimethylamino)propyl)phenoxy)propyl)piperidine-4-carbonitrile oxalate] | 60.5 ± 5.7 | 48.6 ± 6.4 | 148 to 151 | 
22 | CNCC[C@H](Oc1cccc2ccccc12)c1cccs1 [Duloxetine, reference compound] |  |  |  | Ki (adrenergic α1 receptor): 1010 ± 97.8 nM; LD50 (female rats): 279 mg/kg; minimal effective dose (MED) in TST (mice [2]): 16 mg/kg; minimal effective dose (MED) in FST (mice [3]): 16 mg/kg
23 | CNCCC(Oc1ccccc1OC)c1ccccc1 (centres unmarked) [Nisoxetine, reference compound] |  |  |  | inhibition at 10 µM (NET [4]): 99.8 ± 1.9%
24 | Clc1ccc(CCCOCCCN2CCCCC2)cc1 [Pitolisant, reference compound] |  | > 1000 |  | Ki (SERT; Receptor Affinity Ki ± SEM SERT): > 1000 nM; inhibition at 10 µM (recombinant hH3R): 99.3 ± 2.5%
